In ChEMBL document CHEMBL1127541, “3,4-Dihydro-3-amino-2H-1-benzopyran derivatives as 5-HT1A receptor ligands and potential anxiolytic agents. 1. Synthesis and structure--activity relationship studies” (J Med Chem, 1994):
pIC50: −log10 of the molar value.

Tests used:
D(1A) dopamine receptor = D(1A) dopamine receptor (Bos taurus, UniProt Q95136); test: Binding affinity towards dopamine receptor D1 in calf striatum; format: tissue-based
D(2) dopamine receptor = D(2) dopamine receptor (Bos taurus, UniProt P20288); test: Binding affinity against D2 receptor in calf caudate nucleus
[1] = target: T1, Alpha-1A adrenergic receptor (Bos taurus, UniProt P18130); test: Binding affinity against alpha-1 adrenergic receptor in calf frontal cortex; format: tissue-based
T1 sequence (P18130 whole entry): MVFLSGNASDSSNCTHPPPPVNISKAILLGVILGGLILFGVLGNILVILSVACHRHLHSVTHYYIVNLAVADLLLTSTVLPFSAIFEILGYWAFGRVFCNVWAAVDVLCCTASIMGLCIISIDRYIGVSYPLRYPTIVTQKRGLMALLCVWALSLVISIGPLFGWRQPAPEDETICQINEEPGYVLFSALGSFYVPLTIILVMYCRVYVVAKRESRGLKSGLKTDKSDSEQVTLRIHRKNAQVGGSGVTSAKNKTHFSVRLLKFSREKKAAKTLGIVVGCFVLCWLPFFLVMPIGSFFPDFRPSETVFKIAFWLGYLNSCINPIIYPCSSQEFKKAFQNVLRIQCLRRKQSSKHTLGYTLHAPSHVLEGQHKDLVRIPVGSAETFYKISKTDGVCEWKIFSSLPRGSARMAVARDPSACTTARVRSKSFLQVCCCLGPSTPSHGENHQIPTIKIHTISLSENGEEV

[2] = target: 5-hydroxytryptamine receptor 1B (Rattus norvegicus, UniProt P28564); test: Binding affinity for 5-hydroxytryptamine 1B receptor in rat cortex, striatum and globus pallidus; format: tissue-based
[3] = target: 5-hydroxytryptamine receptor 2A (Bos taurus, UniProt Q75Z89); test: Binding affinity towards 5-hydroxytryptamine 2 receptor in calf frontal cortex; format: tissue-based
[4] = target: T2, Alpha-2A adrenergic receptor (Bos taurus, UniProt Q28838); test: Binding affinity against alpha-2 adrenergic receptor in calf frontal cortex; format: tissue-based
T2 sequence (Q28838 whole entry): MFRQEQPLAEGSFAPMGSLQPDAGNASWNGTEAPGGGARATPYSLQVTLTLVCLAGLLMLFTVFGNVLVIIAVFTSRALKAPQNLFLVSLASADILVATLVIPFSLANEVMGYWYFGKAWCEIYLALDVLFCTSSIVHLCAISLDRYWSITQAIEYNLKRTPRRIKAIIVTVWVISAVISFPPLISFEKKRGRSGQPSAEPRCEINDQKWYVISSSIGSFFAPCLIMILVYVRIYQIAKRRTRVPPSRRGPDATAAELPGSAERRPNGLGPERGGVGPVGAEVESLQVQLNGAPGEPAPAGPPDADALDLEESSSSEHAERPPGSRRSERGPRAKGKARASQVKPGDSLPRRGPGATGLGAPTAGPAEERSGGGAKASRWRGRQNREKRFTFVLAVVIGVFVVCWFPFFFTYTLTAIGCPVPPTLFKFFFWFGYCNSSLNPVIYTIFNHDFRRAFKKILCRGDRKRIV

[5] = target: T3, 5-hydroxytryptamine receptor 1A (Rattus norvegicus, UniProt P19327); test: Binding affinity against 5-hydroxytryptamine 1A (5-HT1A) receptor in rat hippocampus membranes; format: cell membranes, Membrane
T3 sequence (P19327 whole entry): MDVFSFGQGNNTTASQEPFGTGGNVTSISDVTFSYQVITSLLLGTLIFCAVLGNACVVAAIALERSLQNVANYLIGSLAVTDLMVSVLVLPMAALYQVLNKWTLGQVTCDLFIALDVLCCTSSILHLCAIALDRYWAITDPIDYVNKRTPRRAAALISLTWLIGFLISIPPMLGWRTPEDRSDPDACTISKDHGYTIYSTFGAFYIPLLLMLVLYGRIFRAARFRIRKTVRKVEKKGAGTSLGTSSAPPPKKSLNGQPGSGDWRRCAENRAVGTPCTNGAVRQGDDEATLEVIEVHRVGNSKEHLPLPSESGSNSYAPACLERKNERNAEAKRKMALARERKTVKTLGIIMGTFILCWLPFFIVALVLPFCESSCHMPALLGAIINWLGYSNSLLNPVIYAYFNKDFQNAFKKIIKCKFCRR

5-hydroxytryptamine receptor 2A, sequence (Q75Z89 whole entry): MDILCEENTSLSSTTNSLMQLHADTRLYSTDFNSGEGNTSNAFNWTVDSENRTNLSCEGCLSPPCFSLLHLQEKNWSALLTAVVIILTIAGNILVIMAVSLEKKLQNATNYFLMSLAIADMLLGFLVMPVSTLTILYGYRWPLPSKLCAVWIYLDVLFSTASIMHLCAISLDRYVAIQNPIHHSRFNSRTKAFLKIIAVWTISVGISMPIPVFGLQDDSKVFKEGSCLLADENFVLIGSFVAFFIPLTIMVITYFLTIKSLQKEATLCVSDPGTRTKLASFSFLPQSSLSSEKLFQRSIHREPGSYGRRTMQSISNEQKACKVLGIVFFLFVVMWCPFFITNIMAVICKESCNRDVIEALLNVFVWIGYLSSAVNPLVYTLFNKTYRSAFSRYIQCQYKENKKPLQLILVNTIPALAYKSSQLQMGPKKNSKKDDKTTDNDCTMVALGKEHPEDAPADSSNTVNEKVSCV
D(2) dopamine receptor, sequence (P20288 whole entry): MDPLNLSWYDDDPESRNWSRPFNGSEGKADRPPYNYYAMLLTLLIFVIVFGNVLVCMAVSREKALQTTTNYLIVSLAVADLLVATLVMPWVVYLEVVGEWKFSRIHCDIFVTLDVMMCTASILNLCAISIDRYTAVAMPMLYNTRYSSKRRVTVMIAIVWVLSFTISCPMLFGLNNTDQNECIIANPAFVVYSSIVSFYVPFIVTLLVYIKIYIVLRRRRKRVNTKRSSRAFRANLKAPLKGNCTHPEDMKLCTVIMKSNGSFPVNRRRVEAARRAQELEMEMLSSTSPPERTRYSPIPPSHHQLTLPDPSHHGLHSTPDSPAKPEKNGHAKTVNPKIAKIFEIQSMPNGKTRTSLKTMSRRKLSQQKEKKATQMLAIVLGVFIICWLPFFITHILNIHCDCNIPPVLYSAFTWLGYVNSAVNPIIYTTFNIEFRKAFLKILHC
5-hydroxytryptamine receptor 1B, sequence (P28564 whole entry): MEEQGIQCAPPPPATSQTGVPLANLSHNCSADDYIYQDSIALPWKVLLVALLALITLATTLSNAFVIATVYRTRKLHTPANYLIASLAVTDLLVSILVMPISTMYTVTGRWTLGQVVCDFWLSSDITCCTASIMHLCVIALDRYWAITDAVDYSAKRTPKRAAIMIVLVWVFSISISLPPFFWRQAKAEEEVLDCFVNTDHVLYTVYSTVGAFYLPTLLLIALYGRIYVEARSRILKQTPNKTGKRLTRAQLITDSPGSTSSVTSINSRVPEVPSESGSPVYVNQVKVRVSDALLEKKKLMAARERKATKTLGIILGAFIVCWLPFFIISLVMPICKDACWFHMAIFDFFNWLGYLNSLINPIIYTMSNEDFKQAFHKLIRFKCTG
D(1A) dopamine receptor, sequence (Q95136 whole entry): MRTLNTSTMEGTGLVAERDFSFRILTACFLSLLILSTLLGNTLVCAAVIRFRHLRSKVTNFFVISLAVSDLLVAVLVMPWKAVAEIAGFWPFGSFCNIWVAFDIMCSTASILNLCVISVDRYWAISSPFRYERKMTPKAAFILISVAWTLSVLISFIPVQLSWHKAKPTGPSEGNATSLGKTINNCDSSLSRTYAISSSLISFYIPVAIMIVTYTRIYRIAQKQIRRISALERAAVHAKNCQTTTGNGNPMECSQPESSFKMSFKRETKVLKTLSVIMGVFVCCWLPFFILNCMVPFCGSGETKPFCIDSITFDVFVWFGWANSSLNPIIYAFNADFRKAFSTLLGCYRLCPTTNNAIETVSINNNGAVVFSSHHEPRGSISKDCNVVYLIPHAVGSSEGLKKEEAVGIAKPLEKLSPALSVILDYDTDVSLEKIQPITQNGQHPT

Compound | pIC50 (D(1A) dopamine receptor) | pIC50 (D(2) dopamine receptor) | pIC50 [1] | pIC50 [2] | pIC50 [3] | pIC50 [4] | pIC50 [5]
CCCN(CCCCN1CCOCC1)C1COc2cccc(OC)c2C1 (stereo unspecified) | 4.00 | 7.52 | 5.00 | < 3.00 | 5.00 | 5.40 | 8.10
CCCN(CCCCN1CC2CCCC2C1=O)C1COc2cccc(OC)c2C1 (stereo unspecified) | 4.22 | 8.52 | 5.30 | 4.52 | 5.70 | 5.40 | 9.00
CCCN(CCCCN1CCCCC1)C1COc2cccc(OC)c2C1 (stereo unspecified) | 4.00 | 7.70 | 5.30 | 4.30 | < 3.00 | 5.00 | 8.70
CCCN(CCCCNC(=O)c1ccccc1OC)C1COc2cccc(OC)c2C1 (stereo unspecified) | – | 8.00 | 5.52 | 6.00 | 5.40 | 7.00 | 9.00
CCCN(CCCCN1C(=O)CC2(CCCC2)CC1=O)C1COc2ccccc2C1 (stereo unspecified) | 4.40 | 8.40 | 5.15 | 4.52 | 5.70 | 5.00 | 8.70
CCCN(CCCCN1C(=O)c2ccccc2S1(=O)=O)C1COc2cccc(OC)c2C1 (stereo unspecified) | 4.30 | 7.05 | 6.00 | 6.00 | 5.00 | 4.40 | 9.00
CCC[N+](C)(CCCCN1C(=O)CC2(CCCC2)CC1=O)C1COc2cccc(OC)c2C1 (stereo unspecified) | 4.00 | 6.00 | 4.15 | < 3.00 | < 3.00 | 3.00 | 6.52
CCCN(CCCCN1C(=O)CC(C)(C)CC1=O)C1COc2cccc(OC)c2C1 (stereo unspecified) | 4.10 | 7.40 | 5.22 | 5.00 | 5.22 | 6.40 | 8.40
COc1cccc2c1CC(NCCCCN1C(=O)CC3(CCCC3)CC1=O)CO2 (stereo unspecified) | 4.70 | 6.05 | 5.00 | 4.70 | 6.00 | 4.70 | 7.70
O=C1CC2(CCCC2)CC(=O)N1CCCCN1CCN(c2ncccn2)CC1 [BUSPIRONE] | 4.57 | 5.40 | 4.80 | – | 5.00 | 5.00 | –

Further lines, results first:

pIC50 (D(1A) dopamine receptor) | pIC50 (D(2) dopamine receptor) | pIC50 [1] | pIC50 [2] | pIC50 [3] | pIC50 [4] | pIC50 [5] | Compound
4.52 | 5.30 | 3.00 | 5.15 | 6.22 | 5.40 | 7.05 | COc1cccc2c1CC(NCCCCN1C(=O)c3ccccc3C1=O)CO2 (stereo unspecified)
4.22 | 4.22 | 5.30 | 4.70 | 5.52 | 7.00 | 9.00 | CCCN(CCCCCN1C(=O)CC2(CCCC2)CC1=O)C1COc2cccc(OC)c2C1 (stereo unspecified)
5.00 | 6.22 | 5.10 | 4.70 | 6.10 | 5.22 | 9.00 | CCCN(CCCN1C(=O)CC2(CCCC2)CC1=O)C1COc2cccc(OC)c2C1 (stereo unspecified)
4.70 | 7.70 | 5.05 | 4.40 | 5.40 | 5.70 | 9.00 | CCCN(CCCON1C(=O)CC2(CCCC2)CC1=O)C1COc2cccc(OC)c2C1 (stereo unspecified)
4.70 | 7.52 | 5.52 | 5.70 | 5.22 | 6.30 | 8.52 | CCCN(CCCNS(=O)(=O)c1ccc(C)cc1)C1COc2cccc(OC)c2C1 (stereo unspecified)
< 3.00 | 5.00 | < 3.00 | < 3.00 | < 4.00 | < 3.00 | 6.10 | CCCN(CCN1C(=O)c2ccccc2C1=O)C1COc2cccc(OC)c2C1 (stereo unspecified)
4.52 | 7.00 | 5.52 | 6.00 | 5.22 | 5.30 | 8.30 | CCCN(CCCCn1c(=O)oc2cccnc21)C1COc2cccc(OC)c2C1 (stereo unspecified)
